These results are taken from publication PMC9927415, “Tyrosine Kinase Inhibitors Display Potent Activity against Cryptosporidium parvum” (Microbiology Spectrum, 2022).

What all share (experiment): KINOMEscan competitive binding, whole panel
Experiment [1] has as its target T1, panel of 203 kinases (Homo sapiens, UniProt Q9P289).
T1 construct: purchased DiscoverX (KINOMEscan)
The settings on record: 10 µM, n=1; kinase MST4; read-out: Percent inhibition MST4. The gist of the method: (§1)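 This competitive binding format measures displacement of T7 phage-tagged kinases from an immobilized ATP-site ligand by the test compound; values are percentage inhibition.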

For experiment [2], the target named is T2, panel of 203 kinases (Homo sapiens, UniProt P11362).
T2 construct: purchased DiscoverX (KINOMEscan)
T2 sequence (P11362 22-822): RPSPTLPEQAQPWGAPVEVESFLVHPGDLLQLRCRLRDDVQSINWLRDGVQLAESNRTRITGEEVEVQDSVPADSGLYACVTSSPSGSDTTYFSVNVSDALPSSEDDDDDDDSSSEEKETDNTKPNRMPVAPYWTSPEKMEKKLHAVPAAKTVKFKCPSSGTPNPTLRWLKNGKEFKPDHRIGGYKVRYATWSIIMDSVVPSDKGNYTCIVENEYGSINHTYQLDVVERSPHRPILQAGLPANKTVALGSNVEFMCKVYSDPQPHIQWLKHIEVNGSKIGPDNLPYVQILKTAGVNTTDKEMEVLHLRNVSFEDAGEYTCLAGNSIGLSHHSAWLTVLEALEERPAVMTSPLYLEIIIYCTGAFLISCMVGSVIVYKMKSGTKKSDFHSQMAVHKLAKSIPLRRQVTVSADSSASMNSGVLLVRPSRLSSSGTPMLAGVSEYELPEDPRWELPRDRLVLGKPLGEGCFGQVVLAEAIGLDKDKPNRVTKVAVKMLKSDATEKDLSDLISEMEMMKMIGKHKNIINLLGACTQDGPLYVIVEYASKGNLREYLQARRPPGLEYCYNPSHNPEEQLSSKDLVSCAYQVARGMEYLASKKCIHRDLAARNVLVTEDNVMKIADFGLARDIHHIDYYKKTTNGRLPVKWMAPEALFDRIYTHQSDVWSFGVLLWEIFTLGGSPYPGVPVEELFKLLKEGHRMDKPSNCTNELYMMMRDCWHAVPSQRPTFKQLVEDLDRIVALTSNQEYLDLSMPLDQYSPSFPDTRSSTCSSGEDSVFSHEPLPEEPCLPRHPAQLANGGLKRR
To be noted: 10 µM, n=1; kinase FGFR1; read-out: Percent inhibition FGFR1. Summed up: as §1

Experiment [3] has as its target T3, panel of 203 kinases (Homo sapiens, UniProt P54760).
T3 construct: purchased DiscoverX (KINOMEscan)
T3 sequence (P54760 16-987): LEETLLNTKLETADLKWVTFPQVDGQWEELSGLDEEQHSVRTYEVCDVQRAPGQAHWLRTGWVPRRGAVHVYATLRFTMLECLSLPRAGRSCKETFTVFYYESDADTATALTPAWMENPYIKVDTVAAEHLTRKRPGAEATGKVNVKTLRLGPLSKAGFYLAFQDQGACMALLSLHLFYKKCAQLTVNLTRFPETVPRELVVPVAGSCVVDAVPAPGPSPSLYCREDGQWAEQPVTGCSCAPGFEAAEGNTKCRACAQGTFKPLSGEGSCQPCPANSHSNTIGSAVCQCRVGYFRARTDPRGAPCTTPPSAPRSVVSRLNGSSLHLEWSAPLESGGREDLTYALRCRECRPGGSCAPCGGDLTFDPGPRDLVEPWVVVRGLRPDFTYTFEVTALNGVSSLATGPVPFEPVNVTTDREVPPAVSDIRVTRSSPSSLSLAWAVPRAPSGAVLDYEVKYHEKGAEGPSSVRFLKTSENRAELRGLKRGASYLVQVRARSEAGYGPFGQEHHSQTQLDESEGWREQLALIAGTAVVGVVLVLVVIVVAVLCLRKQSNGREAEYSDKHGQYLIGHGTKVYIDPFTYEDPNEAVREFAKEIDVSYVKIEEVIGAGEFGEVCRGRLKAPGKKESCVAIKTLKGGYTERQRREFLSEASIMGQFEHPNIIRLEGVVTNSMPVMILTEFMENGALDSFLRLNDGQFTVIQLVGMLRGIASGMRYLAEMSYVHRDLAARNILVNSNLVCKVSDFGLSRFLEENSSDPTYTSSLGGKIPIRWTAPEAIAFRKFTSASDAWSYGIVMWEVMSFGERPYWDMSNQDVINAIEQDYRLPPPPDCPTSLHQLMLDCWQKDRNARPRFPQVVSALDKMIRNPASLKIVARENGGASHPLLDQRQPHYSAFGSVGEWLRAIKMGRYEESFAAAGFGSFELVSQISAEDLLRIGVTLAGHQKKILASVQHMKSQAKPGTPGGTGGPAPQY
To be noted: 10 µM, n=1; kinase EPHB4; read-out: Percent inhibition EPHB4. The gist of the method:
as §1

Experiment [4] addresses T4, panel of 203 kinases (Homo sapiens, UniProt Q9HC98).
T4 construct: purchased DiscoverX (KINOMEscan)
To be noted: 10 µM, n=1; kinase NEK6; read-out: Percent inhibition NEK6. Summed up:
as §1

Experiment [5] addresses T5, panel of 203 kinases (Homo sapiens, UniProt P21709).
T5 construct: purchased DiscoverX (KINOMEscan)
T5 sequence (P21709 26-976): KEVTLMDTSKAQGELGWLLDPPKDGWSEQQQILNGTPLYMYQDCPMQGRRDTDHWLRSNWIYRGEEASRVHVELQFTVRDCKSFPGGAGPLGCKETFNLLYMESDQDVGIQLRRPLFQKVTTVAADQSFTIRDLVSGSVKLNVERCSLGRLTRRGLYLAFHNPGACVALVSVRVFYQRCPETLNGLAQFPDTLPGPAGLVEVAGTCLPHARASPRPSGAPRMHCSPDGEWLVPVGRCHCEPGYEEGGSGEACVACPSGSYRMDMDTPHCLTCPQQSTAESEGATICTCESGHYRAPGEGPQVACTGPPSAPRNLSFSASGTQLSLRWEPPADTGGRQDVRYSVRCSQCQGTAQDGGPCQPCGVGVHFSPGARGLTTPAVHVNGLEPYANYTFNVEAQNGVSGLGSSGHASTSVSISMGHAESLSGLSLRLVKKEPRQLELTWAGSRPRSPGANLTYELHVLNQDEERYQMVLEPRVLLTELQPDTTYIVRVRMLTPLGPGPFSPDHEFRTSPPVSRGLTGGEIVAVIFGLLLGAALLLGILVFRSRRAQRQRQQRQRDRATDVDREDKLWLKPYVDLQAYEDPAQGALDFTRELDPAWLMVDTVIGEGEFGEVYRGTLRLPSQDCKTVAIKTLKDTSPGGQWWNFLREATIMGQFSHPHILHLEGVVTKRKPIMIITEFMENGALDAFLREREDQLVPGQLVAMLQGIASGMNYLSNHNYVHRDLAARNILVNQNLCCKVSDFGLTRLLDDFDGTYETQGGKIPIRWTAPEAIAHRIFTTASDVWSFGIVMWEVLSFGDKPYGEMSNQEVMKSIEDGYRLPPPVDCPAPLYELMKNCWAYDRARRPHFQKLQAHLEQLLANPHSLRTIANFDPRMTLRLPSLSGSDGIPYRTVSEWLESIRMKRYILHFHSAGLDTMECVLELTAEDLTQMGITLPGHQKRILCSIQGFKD
To be noted: 10 µM, n=1; kinase EPHA1; read-out: Percent inhibition EPHA1. Summed up:
as §1

In experiment [6] the target is T6, panel of 203 kinases (Homo sapiens, UniProt Q16584).
T6 construct: purchased DiscoverX (KINOMEscan)
T6 sequence (Q16584 whole entry): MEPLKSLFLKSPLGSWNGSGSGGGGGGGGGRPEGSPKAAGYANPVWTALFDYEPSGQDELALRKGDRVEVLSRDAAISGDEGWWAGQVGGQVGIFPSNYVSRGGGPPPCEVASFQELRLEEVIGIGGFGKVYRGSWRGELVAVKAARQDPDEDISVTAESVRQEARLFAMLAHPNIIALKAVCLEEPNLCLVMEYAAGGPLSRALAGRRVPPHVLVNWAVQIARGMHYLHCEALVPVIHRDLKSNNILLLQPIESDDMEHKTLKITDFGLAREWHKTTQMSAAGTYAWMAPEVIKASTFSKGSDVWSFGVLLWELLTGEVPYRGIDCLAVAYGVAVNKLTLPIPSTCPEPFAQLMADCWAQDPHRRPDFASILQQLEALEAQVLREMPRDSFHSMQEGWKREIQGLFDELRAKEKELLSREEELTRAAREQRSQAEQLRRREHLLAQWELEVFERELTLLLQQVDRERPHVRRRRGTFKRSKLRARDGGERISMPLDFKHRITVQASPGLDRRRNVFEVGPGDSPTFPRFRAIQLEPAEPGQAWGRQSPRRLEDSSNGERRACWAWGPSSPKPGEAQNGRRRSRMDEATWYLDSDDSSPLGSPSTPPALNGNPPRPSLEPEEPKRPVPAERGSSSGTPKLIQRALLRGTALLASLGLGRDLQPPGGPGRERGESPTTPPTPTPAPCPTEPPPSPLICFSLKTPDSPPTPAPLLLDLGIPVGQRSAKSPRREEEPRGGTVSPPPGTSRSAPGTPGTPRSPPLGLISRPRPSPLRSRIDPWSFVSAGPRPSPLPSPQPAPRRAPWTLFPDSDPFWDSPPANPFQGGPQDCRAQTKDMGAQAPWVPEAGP
The settings on record: 10 µM, n=1; kinase MLK3; read-out: Percent inhibition MLK3. Summed up:
as §1

The target of experiment [7] is T7, panel of 203 kinases (Homo sapiens, UniProt P42684).
T7 construct: purchased DiscoverX (KINOMEscan)
To be noted: 10 µM, n=1; kinase ABL2; read-out: Percent inhibition ABL2. The gist of the method: as §1

For experiment [8], the target named is T8, panel of 203 kinases (Homo sapiens, UniProt P42685).
T8 construct: purchased DiscoverX (KINOMEscan)
T8 sequence (P42685 whole entry): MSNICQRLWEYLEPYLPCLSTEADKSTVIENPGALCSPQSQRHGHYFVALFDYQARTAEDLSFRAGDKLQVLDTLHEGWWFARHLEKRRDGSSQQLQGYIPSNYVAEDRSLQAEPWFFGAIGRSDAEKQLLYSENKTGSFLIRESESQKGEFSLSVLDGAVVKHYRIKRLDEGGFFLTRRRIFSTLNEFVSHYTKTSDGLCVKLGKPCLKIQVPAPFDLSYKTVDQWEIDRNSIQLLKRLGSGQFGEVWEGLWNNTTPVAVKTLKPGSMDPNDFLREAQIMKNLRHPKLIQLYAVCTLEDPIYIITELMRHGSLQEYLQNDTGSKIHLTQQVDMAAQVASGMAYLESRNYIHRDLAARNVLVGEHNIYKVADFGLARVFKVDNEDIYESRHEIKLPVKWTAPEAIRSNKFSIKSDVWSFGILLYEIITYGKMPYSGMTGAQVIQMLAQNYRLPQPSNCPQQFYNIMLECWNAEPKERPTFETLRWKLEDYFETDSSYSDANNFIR
To be noted: 10 µM, n=1; kinase FRK; read-out: Percent inhibition FRK. Summed up:
as §1

Experiment [9] has as its target T9, panel of 203 kinases (Homo sapiens, UniProt Q9P2K8, S808G).
T9 construct: purchased DiscoverX (KINOMEscan)
To be noted: 10 µM, n=1; kinase GCN2(Kin.Dom.2,S808G); read-out: Percent inhibition GCN2(Kin.Dom.2,S808G). Summed up:
as §1

The target of experiment [10] is T10, panel of 203 kinases (Homo sapiens, UniProt Q9HAZ1).
T10 construct: purchased DiscoverX (KINOMEscan)
T10 sequence (Q9HAZ1 whole entry): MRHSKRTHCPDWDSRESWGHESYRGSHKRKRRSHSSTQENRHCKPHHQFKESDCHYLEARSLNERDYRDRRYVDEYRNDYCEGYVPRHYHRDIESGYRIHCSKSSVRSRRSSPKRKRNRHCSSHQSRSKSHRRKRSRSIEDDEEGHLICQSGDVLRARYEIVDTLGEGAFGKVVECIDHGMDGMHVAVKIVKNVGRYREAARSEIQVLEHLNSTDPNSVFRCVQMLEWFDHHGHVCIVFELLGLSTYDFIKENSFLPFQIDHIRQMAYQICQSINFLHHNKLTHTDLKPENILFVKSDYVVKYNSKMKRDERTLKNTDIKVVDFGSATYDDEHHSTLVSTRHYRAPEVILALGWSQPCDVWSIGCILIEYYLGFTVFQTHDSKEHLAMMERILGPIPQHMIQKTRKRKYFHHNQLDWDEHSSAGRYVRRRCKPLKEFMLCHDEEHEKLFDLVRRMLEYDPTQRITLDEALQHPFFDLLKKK
To be noted: 10 µM, n=1; kinase CLK4; read-out: Percent inhibition CLK4. The gist of the method: as §1

The target of experiment [11] is T11, panel of 203 kinases (Homo sapiens, UniProt P54756).
T11 construct: purchased DiscoverX (KINOMEscan)
The settings on record: 10 µM, n=1; kinase EPHA5; read-out: Percent inhibition EPHA5. Summed up:
as §1

T1 sequence (Q9P289 whole entry): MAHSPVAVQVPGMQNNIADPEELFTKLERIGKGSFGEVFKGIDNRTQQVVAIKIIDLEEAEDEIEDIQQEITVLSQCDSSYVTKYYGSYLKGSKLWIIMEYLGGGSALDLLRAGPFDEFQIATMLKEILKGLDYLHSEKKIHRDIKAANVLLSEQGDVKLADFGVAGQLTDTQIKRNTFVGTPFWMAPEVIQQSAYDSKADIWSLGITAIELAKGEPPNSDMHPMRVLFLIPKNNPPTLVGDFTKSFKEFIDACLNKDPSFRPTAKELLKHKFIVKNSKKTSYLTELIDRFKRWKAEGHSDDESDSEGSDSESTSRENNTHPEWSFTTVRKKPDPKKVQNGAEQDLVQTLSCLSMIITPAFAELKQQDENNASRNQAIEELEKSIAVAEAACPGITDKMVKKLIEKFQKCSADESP
T9 sequence (Q9P2K8 whole entry S808G): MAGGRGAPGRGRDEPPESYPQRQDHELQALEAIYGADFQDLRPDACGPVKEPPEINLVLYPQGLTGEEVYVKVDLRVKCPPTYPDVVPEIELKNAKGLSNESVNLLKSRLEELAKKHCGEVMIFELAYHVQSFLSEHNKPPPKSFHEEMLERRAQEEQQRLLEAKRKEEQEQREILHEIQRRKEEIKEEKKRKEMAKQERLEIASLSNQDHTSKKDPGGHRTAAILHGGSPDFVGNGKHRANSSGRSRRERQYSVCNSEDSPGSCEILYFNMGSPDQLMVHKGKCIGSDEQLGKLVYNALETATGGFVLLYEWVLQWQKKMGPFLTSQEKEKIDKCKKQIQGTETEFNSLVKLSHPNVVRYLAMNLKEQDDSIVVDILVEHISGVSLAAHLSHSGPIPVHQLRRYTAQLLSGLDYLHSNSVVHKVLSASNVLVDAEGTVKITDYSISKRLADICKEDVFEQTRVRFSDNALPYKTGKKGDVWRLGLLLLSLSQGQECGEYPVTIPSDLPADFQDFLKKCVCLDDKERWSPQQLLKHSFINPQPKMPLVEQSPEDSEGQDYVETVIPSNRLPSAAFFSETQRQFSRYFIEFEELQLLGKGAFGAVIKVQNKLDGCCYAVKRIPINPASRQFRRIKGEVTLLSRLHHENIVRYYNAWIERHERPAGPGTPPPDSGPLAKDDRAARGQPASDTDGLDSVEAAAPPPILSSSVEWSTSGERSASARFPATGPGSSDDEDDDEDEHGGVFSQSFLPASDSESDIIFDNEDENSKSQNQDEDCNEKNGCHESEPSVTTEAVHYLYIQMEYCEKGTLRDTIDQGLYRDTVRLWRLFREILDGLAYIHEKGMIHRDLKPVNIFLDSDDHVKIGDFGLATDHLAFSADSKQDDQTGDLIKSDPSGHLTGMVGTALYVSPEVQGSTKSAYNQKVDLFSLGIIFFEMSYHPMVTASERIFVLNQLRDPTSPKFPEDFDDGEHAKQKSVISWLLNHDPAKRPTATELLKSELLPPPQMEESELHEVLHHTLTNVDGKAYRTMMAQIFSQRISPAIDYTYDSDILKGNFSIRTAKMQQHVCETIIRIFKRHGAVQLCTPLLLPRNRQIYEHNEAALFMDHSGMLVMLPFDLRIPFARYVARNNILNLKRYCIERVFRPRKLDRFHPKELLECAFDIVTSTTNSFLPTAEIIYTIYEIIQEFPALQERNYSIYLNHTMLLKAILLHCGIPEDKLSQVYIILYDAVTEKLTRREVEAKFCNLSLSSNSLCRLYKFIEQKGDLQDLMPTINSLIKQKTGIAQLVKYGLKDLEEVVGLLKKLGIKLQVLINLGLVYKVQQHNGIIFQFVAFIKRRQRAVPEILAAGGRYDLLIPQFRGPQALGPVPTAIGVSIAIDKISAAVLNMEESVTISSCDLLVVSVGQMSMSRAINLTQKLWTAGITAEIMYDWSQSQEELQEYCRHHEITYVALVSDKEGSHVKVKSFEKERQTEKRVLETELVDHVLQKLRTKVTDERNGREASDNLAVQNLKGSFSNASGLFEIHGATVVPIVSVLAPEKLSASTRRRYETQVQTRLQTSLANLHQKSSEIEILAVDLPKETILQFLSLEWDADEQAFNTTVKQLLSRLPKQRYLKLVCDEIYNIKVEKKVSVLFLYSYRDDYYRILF
T4 sequence (Q9HC98 whole entry): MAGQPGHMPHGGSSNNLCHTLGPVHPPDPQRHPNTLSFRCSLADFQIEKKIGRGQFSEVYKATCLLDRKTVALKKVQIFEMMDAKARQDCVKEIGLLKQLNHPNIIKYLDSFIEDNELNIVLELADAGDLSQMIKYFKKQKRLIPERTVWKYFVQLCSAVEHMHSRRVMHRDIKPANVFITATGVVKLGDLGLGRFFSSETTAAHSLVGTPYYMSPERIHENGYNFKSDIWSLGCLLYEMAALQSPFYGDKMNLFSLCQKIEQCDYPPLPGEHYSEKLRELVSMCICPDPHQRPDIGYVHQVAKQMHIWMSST

What is called inhibition is the percentage by which the read-out fell short of the control. Turning to `Nc1ncc2c(-c3ccncc3)c[nH]c2n1` [Compound 11], the inhibition at 10 µM at panel of 203 kinases [1] amounted to 84%; at panel of 203 kinases [2] it was 0%; on panel of 203 kinases [3], 0%; on panel of 203 kinases [4], 0%; on panel of 203 kinases [5] it was 0%; at panel of 203 kinases [6], 82.8%. Also, the inhibition at 10 µM was found to be 0% at panel of 203 kinases [7]; 0% at panel of 203 kinases [8]; 88.5% at panel of 203 kinases [9]; 93.4% on panel of 203 kinases [10]; 0% on panel of 203 kinases [11].
